This is an account of results in article PMC5402281, “Functional, thermodynamics, structural and biological studies of in silico-identified inhibitors of Mycobacterium tuberculosis enoyl-ACP(CoA) reductase enzyme” (Scientific Reports, 2017).

Structures are written as SMILES. Like-named read-outs stand apart in the source and are kept apart here. Marks after values point to notes of the source that are not given here.

As a reminder, the Kd is the equilibrium constant for the complex coming apart. Low readings indicate higher affinity, high ones lower affinity. A word on the IC50: it is the midpoint of a concentration-inhibition curve. As a reminder, the Ki is a measure of affinity in units of concentration, obtained from inhibition or displacement.

Assay [1] concerns M. tuberculosis H37Rv. The experiment in a line: microbe, parasite or virus in culture. It is filed as cell-based. The conditions noted are these: Mycobacterium tuberculosis, 216 h, 7 days + 48 h resazurin, read-out: MIC H37Rv.
Assay [2] relates to M. tuberculosis H37Rv in infected RAW 264.7 macrophages. The experiment in a line: Intracellular activity in M. tuberculosis-infected macrophages (CFU). It is filed as cell-based, Mycobacterium tuberculosis. The note with it: 5 μM; for decrease in CFU counts compared to early control / decrease in CFU counts compared to untreated late control: 5 days; for Mean log CFU/well ± SEM: 5 days of incubation.

The target in assay [3] is T1, MtInhA (Mycobacterium tuberculosis, UniProt P9WGR1).
T1 construct: made in house
T1 sequence (P9WGR1 whole entry, looked up): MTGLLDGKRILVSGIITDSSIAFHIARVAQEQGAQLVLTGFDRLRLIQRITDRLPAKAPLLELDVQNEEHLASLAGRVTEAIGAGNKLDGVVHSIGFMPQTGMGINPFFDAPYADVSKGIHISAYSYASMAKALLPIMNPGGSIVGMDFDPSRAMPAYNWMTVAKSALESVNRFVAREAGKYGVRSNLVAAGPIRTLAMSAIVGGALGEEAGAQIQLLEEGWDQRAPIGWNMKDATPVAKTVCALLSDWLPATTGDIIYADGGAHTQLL
Nature of the assay: MtInhA enzyme inhibition by steady-state kinetics (NADH oxidation at 340 nm). It is filed as biochemical. The conditions noted are these: for inhibitory activity towards MtInhA: IC50 screening; for mode of inhibition with respect to NADH / mode of inhibition with respect to DD-CoA: Lineweaver-Burk plot; for IC50: NADH 60 μM, DD-CoA 45 μM, 25 °C, Pipes pH 7.0, read-out: IC50; for Ki: EI complex; for Ki DD-CoA Kii / Ki NADH Kii: ESI complex. Here is the method:
In order to assess the relative potency of the compounds, inhibition studies were performed by steady-state kinetic studies using a UV-2550 UV/Visible spectrophotometer (Shimadzu^©), monitoring the NADH oxidation at 340 nm (εβ-NADH = […]), in the forward direction. Experiments were performed at 25 °C, in 100 mM Pipes pH 7.0 and were started with the addition of the 2.2 μM MtInhA to a total reaction volume of 500 μL, and monitoring the change in absorbance for 1 min. […] This is needed as IC50 and classical competitive, non-competitive and uncompetitive inhibition modes follow a rapid equilibrium process. Accordingly, MtInhA (2.2 μM) was pre-incubated with inhibitor (10 μM), aliquots were taken at different times and added to the reaction mixture containing NADH (60 μM) and DD-CoA (45 μM), and initial velocity measurements were plotted as a function of time of pre-incubation[6]. Control experiments were carried out pre-incubating MtInhA (2.2 μM) with DMSO (5%) in the absence of inhibitors, and initial velocity measured as a function of time of pre-incubation[6].
The IC50 value, which defines the concentration of inhibitor required to […], was calculated for each compound. The maximal rate for the enzyme reaction was determined in the absence of inhibitor, in the presence of fixed non-saturating concentration of NADH (60 μM ≅ Km) and DD-CoA (45 μM ≅ Km)[10][11][14]. The reaction velocity was analyzed as the percentage of inhibition as a function of inhibitor concentration and data were fitted to Eq 1.
The most promising compounds were further evaluated to assess the inhibition profile and to determine the inhibition constant (Ki). Initial rates were measured as a function of NADH concentration (10–160 μM) at fixed non-saturating DD-CoA concentration (45 μM) and fixed-varied inhibitor concentrations (0.5–120 μM). The Ki values towards NADH were calculated using the uncompetitive equation (Eq. 2) for compounds Labio_6 and Labio_16, in which [I] is the inhibitor concentration, [S] is the substrate concentration, Km and Vmax are, respectively, the Michaelis-Menten constant and maximum velocity, and Kii is the overall inhibition constant for the ESI complex. The Ki of Labio_03 was determined previously.
For compounds Labio_2, Labio_11, Labio_15 and Labio_17, the Ki values with respect to NADH were calculated using Eq. 3, which describes a non-competitive inhibition, where [I] is the inhibitor concentration, [S] is the substrate concentration, Km and Vmax are, respectively, the Michaelis-Menten constant and maximum velocity, Kii is the overall inhibition constant for the ESI complex and Kis is the overall inhibition constant for the EI complex.
Inhibition studies were also carried out in the presence of fixed non-saturating concentration of NADH (60 μM) and fixed-varied inhibitor concentrations (0.5–120 μM), when DD-CoA was the variable substrate (15–135 μM). For compounds Labio_2, Labio_6, and Labio_16, the inhibition constants for the DD-CoA substrate were determined using Eq. 3 for the non-competitive mode of inhibition. For compounds Labio_11, Labio_15 and Labio_17, the Ki for this substrate were calculated from data fitting to the equation for competitive inhibition (Eq. 4), in which [I] is the inhibitor concentration, [S] is the substrate concentration, Km and Vmax are, respectively, the Michaelis-Menten constant and maximum velocity, and Kis is the overall inhibition constant for the EI complex.

Assay [4] deals with T2, MtInhA:NADH binary complex (Mycobacterium tuberculosis, UniProt P9WGR1).
T2 construct: made in house
T2 sequence (P9WGR1 whole entry, looked up, one chain of several): as the sequence (P9WGR1 whole entry, looked up) above
The experiment in a line: biochemical. It is filed as binding. The note with it: for Kd: 25 °C (298.15 K); for ΔG: estimated from ΔH and ΔS (Eq. 7); for ΔH / ΔS: van't Hoff analysis, 15–30 °C.

Assay [5] deals with T1, MtInhA. The arrangement: method as in PMID 23889525. The conditions noted are these: ESI complex; determined previously ref 12; cited from earlier work.
Setting [6] is: varied DD-CoA 15–135 μM, fixed NADH 60 μM, read-out: Ki DD-CoA Kis.
[7] abbreviates: varied DD-CoA 15–135 μM, fixed NADH 60 μM.
[8] abbreviates: varied NADH 10–160 μM, fixed DD-CoA 45 μM, read-out: Ki NADH Kis.
The mark [9] stands for this setting: varied NADH 10–160 μM, fixed DD-CoA 45 μM.

Turning to `NNC(=O)c1ccncc1` [INH, Isoniazid], the MIC in assay [1] was 0.31 µg/mL. Also, in assay [2], the “decrease in CFU counts compared to early control” value worked out at 1.7 log10, the “decrease in CFU counts compared to untreated late control” value is 2.3 log10 and the “Mean log CFU/well ± SEM” value is 2.4 ± 0.1***^+++ log CFU/well.

Turning to `O=C(Cc1csc(-c2ccccn2)n1)Nc1ccccc1Oc1ccccc1` [Labio_1], the MIC in assay [1] was > 10 µg/mL. Besides, the “inhibitory activity towards MtInhA” value in assay [3] is recorded as “no inhibitory activity”.

For `Cc1nc([C@H](C)NC(=O)c2ccc3oc(Cc4ccccc4F)nc3c2)cs1` [Labio_2], in assay [4], the affinity, expressed as Kd, was 2.2 ± 0.2 µM; the ΔG was -7.7 ± 0.7 kcal/mol; the ΔH is -37.7 ± 2.7 kcal/mol; the ΔS is reported as −100.5 ± 9.2 cal.mol^−1.K^−1. Moreover, the MIC in assay [1] was > 100 µg/mL. Moreover, the “mode of inhibition with respect to NADH” value in assay [3] (fixed DD-CoA 45 μM) is “non-competitive”. In addition, the “mode of inhibition with respect to DD-CoA” value in assay [3] (fixed NADH 60 μM) is “non-competitive”. The 50% inhibitory concentration (IC50) in assay [3] was 18 ± 2 µM. In addition, the Ki in assay [3] (setting [6]) was 0.7 ± 0.4 µM. The “Ki DD-CoA Kii” value in assay [3] (setting [7]) came to 0.7 ± 0.2 µM. The inhibitory constant (Ki) in assay [3] (setting [8]) amounted to 2.3 ± 0.8 µM. Besides, in assay [3] (setting [9]), the “Ki NADH Kii” value was 2.2 ± 0.6 µM.

On to `CCCOc1ccc(-c2nnc(NC(=O)Nc3ccccc3C)s2)cc1` [Labio_3], for which, in assay [4], the equilibrium dissociation constant (Kd) was 4.4 ± 0.4 µM, the ΔG was -7.4 ± 0.7 kcal/mol, the ΔH was -27.8 ± 1.8 kcal/mol and the ΔS is −68.5 ± 6.3 cal.mol^−1.K^−1. Besides, in assay [1], the MIC is 11.2 µg/mL. Besides, in assay [3] (fixed DD-CoA 45 μM), the “mode of inhibition with respect to NADH” value is given as “uncompetitive”. Further, the “mode of inhibition with respect to DD-CoA” value in assay [3] (fixed NADH 60 μM) is on record as “uncompetitive”. The IC50 in assay [3] amounted to 19 ± 2 µM. For the same compound, in assay [5], the “Ki DD-CoA Kii” value is 20 ± 2 µM and the “Ki NADH Kii” value was 24 ± 3 µM.

On to `COc1ccc(CCC(=O)Nc2nn3cc(-c4ccccc4)nc3s2)cc1` [Labio_6], for which, in assay [4], binding was characterised by a dissociation constant (Kd) of 3.1 ± 0.4 µM, the ΔG was -7.6 ± 0.7 kcal/mol, the ΔH is -44.7 ± 3.6 kcal/mol and the ΔS was −124.2 ± 12.3 cal.mol^−1.K^−1. The MIC in assay [1] is > 10 µg/mL. For the same compound, the “mode of inhibition with respect to NADH” value in assay [3] (fixed DD-CoA 45 μM) is “uncompetitive”. The “mode of inhibition with respect to DD-CoA” value in assay [3] (fixed NADH 60 μM) is given as “non-competitive”. In assay [3], the IC50 worked out at 9.8 ± 0.9 µM. Also, the inhibitory constant (Ki) in assay [3] (setting [6]) amounted to 0.7 ± 0.2 µM. For the same compound, the “Ki DD-CoA Kii” value in assay [3] (setting [7]) worked out at 0.7 ± 0.1 µM. The “Ki NADH Kii” value in assay [3] (setting [9]) came to 1.8 ± 0.2 µM.

For `Cc1cccc(NC(=O)/C(C#N)=C/c2ccc(OCc3ccccc3)cc2)n1` [Labio_7], in assay [1], the MIC is > 10 µg/mL. Further, the “inhibitory activity towards MtInhA” value in assay [3] is reported as “no inhibitory activity”.

`Cc1ccc(N2C[C@@H](c3nc(-c4ccc(OC(C)C)cc4)no3)CC2=O)cc1C` [Labio_8]: the MIC in assay [1] was > 10 µg/mL. In addition, the “inhibitory activity towards MtInhA” value in assay [3] is “no inhibitory activity”.

As to `Cc1cc(NC(=O)Cc2csc(-c3ccsc3)n2)ccc1Br` [Labio_9], the MIC in assay [1] is > 10 µg/mL. The “inhibitory activity towards MtInhA” value in assay [3] is listed as “no inhibitory activity”.

As to `COc1ccc(-c2n[nH]cc2/C=N\NC(=O)c2cc(C)nc3c(C)cccc23)cc1` [Labio_11], in assay [4], the Kd came to 17.9 ± 1.1 µM, the ΔG was -6.5 ± 0.9 kcal/mol, the ΔH was -18.7 ± 1.7 kcal/mol and the ΔS is −40.9 ± 5.9 cal.mol^−1.K^−1. Moreover, the MIC in assay [1] was > 100 µg/mL. In addition, the “mode of inhibition with respect to NADH” value in assay [3] (fixed DD-CoA 45 μM) is given as “non-competitive”. Also, the “mode of inhibition with respect to DD-CoA” value in assay [3] (fixed NADH 60 μM) was “competitive”. For the same compound, in assay [3], the concentration for half-maximal inhibition (IC50) is 87 ± 3 µM. Also, the Ki in assay [3] (setting [6]) is 27 ± 3 µM. Moreover, the inhibition constant (Ki) in assay [3] (setting [8]) amounted to 44 ± 14 µM. In addition, in assay [3] (setting [9]), the “Ki NADH Kii” value amounted to 41 ± 6 µM.

In the case of `O=C(CNC(=O)c1ccc2c(c1)OCO2)Nc1ccc(Nc2ccccc2)cc1` [Labio_12], the MIC in assay [1] was > 100 µg/mL. Moreover, the “inhibitory activity towards MtInhA” value in assay [3] is on record as “no inhibitory activity”.

Consider `Cc1ccc(N2C[C@@H](c3nc(-c4ccc(OC(C)C)cc4)no3)CC2=O)c(C)c1` [Labio_13], for which the MIC in assay [1] was > 10 µg/mL. Besides, in assay [3], the “inhibitory activity towards MtInhA” value is recorded as “no inhibitory activity”.

On to `CCN(CC)Cc1cc(-c2ccnc3cc(Cl)ccc23)ccc1O` [Labio_15], for which, in assay [4], the dissociation constant (Kd) turned out to be 29.4 ± 2.1 µM, the ΔG is -6.2 ± 1.5 kcal/mol, the ΔH was -9.6 ± 0.8 kcal/mol and the ΔS is on record as −11.5 ± 2.8 cal.mol^−1.K^−1. Also, the MIC in assay [1] was found to be 25 µg/mL. Also, the “mode of inhibition with respect to NADH” value in assay [3] (fixed DD-CoA 45 μM) was “non-competitive”. Also, the “mode of inhibition with respect to DD-CoA” value in assay [3] (fixed NADH 60 μM) is on record as “competitive”. Moreover, the IC50 in assay [3] was 83 ± 2 µM. The Ki in assay [3] (setting [6]) is 74 ± 8 µM. Also, in assay [3] (setting [8]), the Ki turned out to be 110 ± 26 µM. The “Ki NADH Kii” value in assay [3] (setting [9]) was 110 ± 11 µM.

As to `COc1cccc(-c2cccc(NC(=O)C3CCN(CC=C(C)C)CC3)c2)c1` [Labio_20], the MIC in assay [1] is 23.8 µg/mL. For the same compound, the “inhibitory activity towards MtInhA” value in assay [3] is “no inhibitory activity”.

`CO[C@H]1/C=C/O[C@@]2(C)Oc3c(C)c(O)c4c(O)c(c(/C=N/N5CCN(C)CC5)c(O)c4c3C2=O)NC(=O)/C(C)=C\C=C\[C@H](C)[C@H](O)[C@@H](C)[C@@H](O)[C@@H](C)[C@H](OC(C)=O)[C@@H]1C` [Rifampin]: in assay [2], the “decrease in CFU counts compared to early control” value is listed as 1.7 log10, the “decrease in CFU counts compared to untreated late control” value turned out to be 2.3 log10 and the “Mean log CFU/well ± SEM” value is listed as 2.4 ± 0.1***^+++ log CFU/well.
